In patent publication US20260125388A1 (priority 2022, published 2026):
Values after ≈ are worked out from the molar mass of the structure shown. Read-outs that look alike come from different tables or passages of the source.

Key:
GABAA receptor = GABAA receptor binding, competition assay with [3H]-flunitrazepam and rat brain membranes; conditions: for GABAAR binding, % inhibition at 10 μM: Table 3
Procedure: GABAA receptor binding: Rat brain membranes were prepared from frozen tissue that was thawed on ice and homogenized on ice in 10 volumes of cold lysis buffer (50 mM Tris HCl, pH 7.4, containing protease inhibitor cocktail from Roche) using a Polytron homogenizer (6 pulses and 10 seconds per pulse). The homogenate was centrifuged at 1,000×g for 10 min at 4° C. to obtain the supernatant. The supernatant was then centrifuged at 40,000×g for 20 min, and the resulting supernatant decanted and replaced with the same ice-cold lysis buffer. Two or three additional rounds of homogenization-centrifugation were performed to ensure thorough homogenization and also to wash out endogenous ligands. The final pellet was resuspended in the same buffer and homogenized one last time. […] Total binding and nonspecific binding were determined with reference compound clonazepam. […] Scintillation cocktail is then melted onto the microwave-dried filters on a hot plate and radioactivity counted in a Microbeta counter. The data (n=6) were analyzed by nonlinear regression.

HEK293 cells = test: Cytotoxicity, CellTiter-Glo cell viability assay; type: cell-based, human; conditions: for Cytotoxicity LD50: HEK293 cells, CellTiter-Glo, Table 3; for LD50 HEK293: human kidney cells, Table 2
Procedure: Compounds with increased cytotoxicity can be identified using an in vitro cytotoxicity assay. Therefore, human embryonic kidney 293T (HEK293T) cell lines were purchased (ATCC) and cultured in 75 cm2 flasks (CellStar). Cells were grown in DMEM/High Glucose (Hyclone, #SH3024301) media to which non-essential amino acids (Hyclone, #SH30238.01), 10 mM HEPES (Hyclone, #SH302237.01), 5×106 units of penicillin and streptomycin (Hyclone, #SV30010), and 10% of heat inactivated fetal bovine serum (Gibco, #10082147) were added. Cells were harvested using 0.05% Trypsin (Hyclone, #SH3023601). The cell viability assay was evaluated using CellTiter-Glo™ Luminescent Cell Viability Assay Kit (Promega, Madison, WI), which contains luciferase and all its substrate except ATP. The controls for the cytotoxicity assay used were (E)-10-(bromotriphenylphosphoranyl)decyl 4-(4-(tert-butyl)phenyl)-4-oxobut-2-enoate (400 μM in DMSO, positive control) and DMSO (negative control). All luminescence readings were performed on a Tecan Infinite M1000 plate reader. Small volume transfers were performed on the Tecan Freedom EVO liquid handling system with a 100 nL pin tool transfer (V&P Scientific). Serial dilutions were done in 96-well polypropylene plates (Coming, #3365) and assays were conducted in 384-well white optical bottom plates. The assays were carried out in quadruplet in three independent runs. The data were normalized to the controls and if possible analyzed by nonlinear regression (GraphPad Prism).

[1] = Aqueous solubility, shake flask in PBS buffer; type: physicochemical; conditions: for Aqueous solubility: pH 7.2
Procedure: 5-50 mg of compound was added to 500 μL of PBS buffer at pH 7.4. The pH was adjusted if necessary, using a 1M NaOH solution. The solutions were vortexed for 10 s, sonicated for 2 min and agitated with a horizontal shaker in a closed vial for 24 h. The mixtures were transferred to an Eppendorf tube and centrifuged for 5 min at 16000×g followed by filtration through […] cellulose acetate spin X centrifuge filter (Costar). 200 μL of filtrate was transferred to a new Eppendorf tube and 200 μL of methanol was added and then subsequent dilution was made in 50:50 methanol/PBS buffer water if necessary. After mixing, 50 μL were transferred into a 384 well plate (Coring UV star, 781801) for UV detection at 250-600 nm (Tecan M1000). The assay was carried out with three independent samples of each compound. The concentration of each solution was determined with a calibration curve in 50:50 methanol/PBS buffer water. Absorbance of corresponding methanol PBS blank were recorded and subtracted from the absorbance of calibration curve solutions and from the samples.

[2] = parallel artificial membrane permeation assay at pH 7.4
Procedure: The artificial membrane was prepared by carefully pipetting 15 μL of the 5% (v/v) hexadecane in hexane solution to each of the wells of the donor plate. The plate was placed into a fume hood for 1 h to ensure complete evaporation of the hexane. After the hexane had evaporated, 300 μL of PBS with 5% (v/v) DMSO was added to each of the wells of the acceptor plate. The hexadecane treated donor plate was then placed on top of the acceptor plate taking care that the underside of the membrane is completely in contact with the solution in each of the acceptor wells. […] The lid was placed on the plates and the entire plate sandwich was placed into a closed humid environment. The container was then placed on a reciprocal shaker for agitation at about 100 rpm. The time at the beginning of the incubation was recorded, as this is a thermodynamic-based assay. The incubation was then allowed to continue for 18 h. The donor plate was removed and 50 μL of the acceptor solution was transferred to the UV plate. Drug solutions at the theoretical equilibrium concentration (100 μM) was also prepared and transferred to the UV plate. The absorbance of the solutions in the UV plate was then scanned from 250-600 nm with 1 nm steps and a 5 nm bandwidth. Log Pe was calculated as follows (Equation 1).

[3] = 3H-flunitrazepam, rat brain extract
[4] = read-out: GABAAR binding (IC50), value in brackets, 3H-flunitrazepam, rat brain extract, Table 3, unit inferred
[5] = [3H]-flunitrazepam, rat brain, Table 1

| SMILES | GABAAR binding, % inhibition at 10 μM (GABAA receptor; [3]) | IC50 (GABAA receptor; [4]) [nM] | Cytotoxicity LD50 (HEK293 cells) [µM] | Aqueous solubility [1] [µM] | Permeability (log Pe (cm/s)) [2] [cm/s] | LD50 HEK293 (HEK293 cells) [µM] | Aqueous solubility (footnote b: mM) ([1]; pH 7.2, cells marked b) | % Inhibition at 10 μM (GABAA receptor; [5]) [%] | IC50 (GABAA receptor; [5]) [nM] | solubility at 24 h ([1]; PBS buffer, aqueous buffer, thermodynamic from solid, pH 7.2, cells marked b, read-out: Aqueous solubility (footnote b: mM)) [mM] |
| --- | --- | --- | --- | --- | --- | --- | --- | --- | --- | --- |
| O=C1Nc2ccc(Br)cc2C(c2ccccc2F)=NC12CC2 [Compound 2] | 97% | 42 | >150 | 321 ± 19 | −5.6 ± 0.05 | – | – | – | – | – |
| O=C1Nc2ccc(Cl)cc2C(c2ccccc2F)=NC12CC2 [Compound 6] | 90% | 665 | >150 | 39 ± 3 | −5.2 ± 0.15 | – | – | – | – | – |
| CC1(C)N=C(c2ccccc2F)c2cc(Br)ccc2NC1=O [Compound 8] | 70% | 1250 | >150 | 319 ± 24 | −5.7 ± 0.01 | – | – | – | – | – |
| CCOC(=O)c1ncn2c1C1(CC1)N=C(c1ccccc1F)c1cc(Br)ccc1-2 [Compound 9] | 94% | 87 | >120 | 141 ± 20 | −5.1 ± 0.10 | – | – | – | – | – |
| CCOC(=O)c1ncn2c1C1(CCC1)N=C(c1ccccc1F)c1cc(Br)ccc1-2 [Compound 11] | 19 (n.d.) % | – | 106 ± 9 | 144 ± 7 | −5.8 ± 0.10 | – | – | – | – | – |
| CCOC(=O)c1ncn2c1C1(CCCC1)N=C(c1ccccc1F)c1cc(Br)ccc1-2 [Compound 12] | 74% | 6220 | 96 ± 11 | 141 ± 19 | −6.0 ± 0.06 | – | – | – | – | – |
| CCOC(=O)c1ncn2c1C1(CCCCC1)N=C(c1ccccc1F)c1cc(Br)ccc1-2 [Compound 13] | 34 (n.d.) % | – | >150 | 54 ± 2 | −5.6 ± 0.04 | – | – | – | – | – |
| CCOC(=O)c1ncn2c1C(C)(C)N=C(c1ccccc1F)c1cc(Br)ccc1-2 [Compound 15] | 78% | 733 | >150 | 103 ± 5 | −6.0 ± 0.12 | – | – | – | – | – |
| C#Cc1ccc2c(c1)C(c1ccccc1F)=NC1(CC1)c1c(C(=O)O)ncn1-2 [Compound 20, 8-ethynyl-6-(2-fluorophenyl)spiro[benzo[f]imidazo[1,5-a][1,4]diazepine-4,1′-cyclopropane]-3-carboxylic acid] | 55% | 59 | >300 | – | −6.7 ± 0.12 | >400 | 40.3 ± 0.5 ^b mM | – | – | – |
| C#Cc1ccc2c(c1)C(c1ccccc1F)=NC1(CCCC1)c1c(C(=O)O)ncn1-2 [Compound 21, 8-ethynyl-6-(2-fluorophenyl)spiro[benzo[f]imidazo[1,5-a][1,4]diazepine-4,1′-cyclopentane]-3-carboxylic acid] | – | – | – | – | – | >400 | – | 0 | – | – |
| O=C(O)c1ncn2c1C1(CC1)N=C(c1ccccc1F)c1cc(C3CC3)ccc1-2 [Compound 24, 8-cyclopropyl-6-(2-fluorophenyl)spiro[benzo[f]imidazo[1,5-a][1,4]diazepine-4,1′-cyclopropane]-3-carboxylic acid] | 58% | 1830 | >300 | – | −6.4 ± 0.04 | >400 | 12.8 ± 0.1 ^b mM | – | – | – |
| O=C(O)c1ncn2c1C1(CCCC1)N=C(c1ccccc1F)c1cc(C3CC3)ccc1-2 [Compound 25, 8-cyclopropyl-6-(2-fluorophenyl)spiro[benzo[f]imidazo[1,5-a][1,4]diazepine-4,1′-cyclopentane]-3-carboxylic acid] | – | – | – | – | – | >400 | – | 31.4 | – | – |
| O=C(O)c1ncn2c1C1(CC1)N=C(c1ccccc1F)c1cc(Br)ccc1-2 [Compound 26, 8-bromo-6-(2-fluorophenyl)spiro[benzo[f]imidazo[1,5-a][1,4]diazepine-4,1′-cyclopropane]-3-carboxylic acid] | 97% | 9 | >300 | – | −6.8 ± 0.09 | >400 | – | 97.0 | 9.1 | 8.2 (≈ 3500 µg/mL) |
| O=C(O)c1ncn2c1C1(CCC1)N=C(c1ccccc1F)c1cc(Br)ccc1-2 [Compound 27, 8-bromo-6-(2-fluorophenyl)spiro[benzo[f]imidazo[1,5-a][1,4]diazepine-4,1′-cyclobutane]-3-carboxylic acid] | 59% | 1830 | >300 | – | −6.6 ± 0.10 | >400 | 58.7 ± 4.4 ^b mM | 59.4 | 1830 | – |
| O=C(O)c1ncn2c1C1(CCCC1)N=C(c1ccccc1F)c1cc(Br)ccc1-2 [Compound 28, 8-bromo-6-(2-fluorophenyl)spiro[benzo[f]imidazo[1,5-a][1,4]diazepine-4,1′-cyclopentane]-3-carboxylic acid] | 2 (n.d.) % | – | >300 | – | −6.7 ± 0.04 | >400 | 46.7 ± 0.6 ^b mM | 23.8 | – | – |
| O=C(O)c1ncn2c1C1(CCCCC1)N=C(c1ccccc1F)c1cc(Br)ccc1-2 [Compound 29, 8-bromo-6-(2-fluorophenyl)spiro[benzo[f]imidazo[1,5-a][1,4]diazepine-4,1′-cyclohexane]-3-carboxylic acid] | 24 (n.d.) % | – | >300 | – | −6.6 ± 0.10 | >400 | 46.9 ± 1.3 ^b mM | 1.9 | – | – |
| O=C(O)c1ncn2c1C1(CC1)N=C(c1ccccc1F)c1cc(Cl)ccc1-2 [Compound 30, 8-chloro-6-(2-fluorophenyl)spiro[benzo[f]imidazo[1,5-a][1,4]diazepine-4,1′-cyclopropane]-3-carboxylic acid] | 18 (n.d.) % | – | >300 | – | −6.6 ± 0.03 | >400 | 36.2 ± 0.4 ^b mM | – | – | – |
| O=C(O)c1ncn2c1C1(CCCC1)N=C(c1ccccc1F)c1cc(Cl)ccc1-2 [Compound 31, 8-chloro-6-(2-fluorophenyl)spiro[benzo[f]imidazo[1,5-a][1,4]diazepine-4,1′-cyclopentane]-3-carboxylic acid] | – | – | – | – | – | >400 | – | 47.8 | – | – |
| O=C(O)c1ncn2c1C1(CC1)N=C(c1ccccc1F)c1ccccc1-2 [Compound 32, 6-(2-fluorophenyl)spiro[benzo[f]imidazo[1,5-a][1,4]diazepine-4,1′-cyclopropane]-3-carboxylic acid] | 74% | 289 | >300 | – | −7.0 ± 0.14 | >400 | 15.1 ± 0.1 ^b mM | – | – | – |
| O=C(O)c1ncn2c1C1(CCCC1)N=C(c1ccccc1F)c1ccccc1-2 [Compound 33, 6-(2-fluorophenyl)spiro[benzo[f]imidazo[1,5-a][1,4]diazepine-4,1′-cyclopentane]-3-carboxylic acid] | – | – | – | – | – | >400 | – | 4.7 | – | – |
